In DBAASP:
In brackets after ≈: the same amount, converted by molar mass. Several values for one entry are separate records, joined by “and”; a condition that tells them apart may be missing. Equal values may be shown once. Blank lines part the entries; values can stand above or below the compound they belong to.

What was measured:
Assay in all cases: ≥ marks a high value that may be exact or a test limit, other limits are often not marked, values filed in µg/mL are converted to µM
[1] = system: Enterobacter cloacae NHTCC 53001
[2] = system: Escherichia coli ATCC 25922
[3] = system: Staphylococcus aureus NCTC 8325
[4] = system: Pseudomonas aeruginosa ATCC 27853
[5] = system: Candida albicans ATCC 90028
[6] = system: Klebsiella pneumoniae KK3 9904
[7] = system: Pseudomonas aeruginosa CUN 4158-02
[8] = system: Staphylococcus aureus ATCC 43300
[9] = system: Staphylococcus aureus ATCC 25923
[10] = system: Bordetella bronchiseptica CUN 11844-99
[11] = system: Stenotrophomonas maltophilia CUN 3998-00
[12] = system: Staphylococcus aureus CUN 3792-99
Klebsiella pneumoniae = system: Klebsiella pneumoniae
Vibrio cholerae CUN 09 = system: Vibrio cholerae CUN 09
[13] = system: Acinetobacter baumannii ATCC 19606
Escherichia coli ESBL = system: Escherichia coli ESBL
[14] = system: Micrococcus luteus AB2010179
Enterococcus sp. S13 = system: Enterococcus sp. S13
[15] = system: Klebsiella oxytoca AB2010143
[16] = system: Salmonella enterica AB2010185
[17] = system: Enterobacter cloacae AB2010162
[18] = system: Staphylococcus aureus AB94004
Pseudomonas putida = system: Pseudomonas putida
[19] = system: Candida tropicalis AY91009
[20] = system: Escherichia coli DH5alpha
[21] = system: Bacillus magaterium AB90008
[22] = system: Staphylococcus aureus 16472
Acinetobacter baumannii = system: Acinetobacter baumannii
[23] = system: Escherichia coli NIHJ JC-2
[24] = system: Candida albicans ATCC 10231
[25] = system: Staphylococcus aureus FDA 209P
[26] = system: Staphylococcus aureus CCRC 15211
[27] = system: Staphylococcus epidermidis ATCC 12228
Escherichia coli JM109 = system: Escherichia coli JM109
[28] = system: Enterococcus faecalis LS-101
Enterococcus faecalis = system: Enterococcus faecalis
Escherichia coli BL21 = system: Escherichia coli BL21
[29] = system: Lactobacillus delbrueckii subsp. bulgaricus
[30] = system: Klebsiella pneumoniae CCRC 10694
Citrobacter koseri = system: Citrobacter koseri
[31] = system: Enterococcus faecium EFMY-28
[32] = system: Vibrio parahaemolyticus CCRC 10806
Shigella flexneri EW-10 = system: Shigella flexneri EW-10
Botrytis cinerea = system: Botrytis cinerea
[33] = system: Bacillus subtilis PCI 219
Shigella sonnei EW-33 = system: Shigella sonnei EW-33
[34] = system: Escherichia coli ATCC 11775
Staphylococcus aureus = system: Staphylococcus aureus
[35] = system: Staphylococcus aureus CCRC 12652
[36] = system: Salmonella typhimurium CCRC 12947
Staphylococcus xylosus = system: Staphylococcus xylosus
[37] = system: Staphylococcus aureus 1840
[38] = system: Bifidobacterium adolescentis
Enterococcus faecium = system: Enterococcus faecium
[39] = system: Staphylococcus aureus ATCC 12600
Salmonella enterica = system: Salmonella enterica

MIC [1]: 3 µM (≈ 11.5 µg/mL)
MIC [2]: 3 µM (≈ 11.5 µg/mL)
MIC [3]: 25 µM (≈ 96 µg/mL)
MIC [4]: 3 µM (≈ 11.5 µg/mL)
MIC [5]: ≥ 100 µM
MIC [6]: 6 µM (≈ 23 µg/mL)
Structure (SMILES): CC[C@H](C)[C@@H]1NC(=O)[C@H](CCCCN)NC(=O)[C@@H](NC(=O)[C@H](CCCCN)NC(=O)[C@H](C)NC(=O)[C@H](CCC(N)=O)NC(=O)[C@H](CC(=O)O)NC(=O)[C@H](CC(C)C)NC(=O)[C@H](CC(C)C)NC(=O)[C@H](CO)NC(=O)CNC(=O)CNC(=O)[C@@H](NC(=O)[C@H](CC(N)=O)NC(=O)[C@H](CCCCN)NC(=O)[C@H](Cc2ccccc2)NC(=O)[C@@H](NC(=O)[C@H](Cc2cnc[nH]2)NC(=O)[C@H](CCCCN)NC(=O)CNC(=O)[C@@H](NC(=O)[C@@H](NC(=O)[C@H](CCCCN)NC(=O)[C@H](CC(C)C)NC(=O)[C@@H](NC(=O)CNC(=O)[C@H](CCCCN)NC(=O)[C@H](CC(C)C)NC(=O)[C@@H](NC(=O)[C@H](CO)NC(=O)[C@H](CC(C)C)NC(=O)[C@H](CC(C)C)NC(=O)CN)C(C)C)C(C)C)[C@@H](C)O)[C@@H](C)O)[C@@H](C)CC)C(C)C)CSSC[C@@H](C(=O)O)NC(=O)[C@H](CCC(N)=O)NC(=O)CNC(=O)[C@H](CO)NC1=O [GLLSVLKGVLKTTGKHIFKNVGGSLLDQAKCKISGQC]

MIC [2]: 6.07 µM (≈ 16 µg/mL)
MIC [7]: 12.1 µM (≈ 32 µg/mL)
MIC [8]: 3.03 µM (≈ 8 µg/mL)
MIC [9]: 3.03 µM (≈ 8 µg/mL)
MIC [4]: 6.07 µM (≈ 16 µg/mL)
MIC [10]: ≥ 48.5 µM
MIC [11]: 12.1 µM (≈ 32 µg/mL)
MIC [12]: 3.03 µM (≈ 8 µg/mL)
MIC (Klebsiella pneumoniae): 12.1 µM (≈ 32 µg/mL)
MIC [13]: 6.07 µM (≈ 16 µg/mL)
MIC (Escherichia coli ESBL): 6.07 µM (≈ 16 µg/mL)
Structure (SMILES): N=C(N)NCCC[C@H](NC(=O)CNC(=O)[C@H](CCCCN)NC(=O)[C@H](Cc1ccccc1)NC(=O)[C@H](CCCCN)NC(=O)[C@H](Cc1c[nH]c2ccccc12)NC(=O)[C@H](CCCNC(=N)N)NC(=O)[C@H](Cc1ccccc1)NC(=O)[C@H](CCCCN)NC(=O)[C@H](CCCCN)NC(=O)[C@H](Cc1ccc(O)cc1)NC(=O)[C@H](CCCNC(=N)N)NC(=O)[C@H](CCCNC(=N)N)NC(=O)CN)C(=O)N[C@@H](Cc1c[nH]c2ccccc12)C(=O)N[C@@H](Cc1ccccc1)C(=O)N[C@@H](Cc1c[nH]c2ccccc12)C(=O)N[C@@H](Cc1ccccc1)C(=O)NCC(=O)O [GRRYKKFRWKFKGRWFWFG]
MIC (Vibrio cholerae CUN 09): 6.07 µM (≈ 16 µg/mL)

MIC [14]: 18 µM (≈ 25.3 µg/mL)
MIC (Enterococcus sp. S13): ≥ 36 µM
MIC [15]: ≥ 87 µM
MIC [16]: ≥ 68 µM
MIC [17]: ≥ 87 µM
MIC [18]: ≥ 48 µM
MIC (Pseudomonas putida): ≥ 87 µM
MIC [19]: 16 µM (≈ 22.5 µg/mL)
MIC [20]: ≥ 48 µM
MIC [21]: ≥ 36 µM
MIC [22]: 28 µM (≈ 39.3 µg/mL)
Structure (SMILES): CC[C@H](C)[C@H](N)C(=O)N[C@@H](Cc1ccccc1)C(=O)NCC(=O)N[C@@H](C)C(=O)N[C@H](C(=O)N[C@@H](Cc1c[nH]c2ccccc12)C(=O)N[C@@H](CCCCN)C(=O)NCC(=O)N[C@H](C(=O)N[C@@H](CO)C(=O)N[C@@H](CO)C(=O)N[C@@H](CC(C)C)C(=O)N[C@@H](CC(C)C)C(=O)O)[C@@H](C)CC)[C@@H](C)CC [IFGAIWKGISSLL]

MIC (Acinetobacter baumannii): 1.05 µM and 1.24 µM
MIC [23]: 7.75 µM (≈ 12.5 µg/mL)
MIC [24]: 15.5 µM (≈ 25 µg/mL)
MIC [25]: 7.75 µM (≈ 12.5 µg/mL)
MIC [26]: 14 µM (≈ 22.6 µg/mL)
MIC [27]: 3.87 µM (≈ 6.25 µg/mL)
MIC (Escherichia coli JM109): 0.62 µM (≈ 0.999 µg/mL)
MIC [28]: 1.94 µM (≈ 3.13 µg/mL)
MIC (Enterococcus faecalis): 6.63 µM (≈ 10.7 µg/mL)
MIC (Escherichia coli BL21): 3.51 µM (≈ 5.65 µg/mL)
MIC [29]: ≥ 79.4 µM
MIC [30]: ≥ 39.7 µM
MIC (Citrobacter koseri): 1.75 µM (≈ 2.83 µg/mL)
MIC [31]: 12.5 µM (≈ 20.2 µg/mL)
MIC (Shigella flexneri EW-10): 3.87 µM (≈ 6.25 µg/mL)
MIC (Botrytis cinerea): 4.96 µM (≈ 8 µg/mL)
MIC [33]: 1.94 µM (≈ 3.13 µg/mL)
MIC (Shigella sonnei EW-33): 3.87 µM (≈ 6.25 µg/mL)
MIC (Klebsiella pneumoniae): > 15.5 µM
MIC [34]: 31 µM (≈ 50 µg/mL)
MIC (Staphylococcus aureus): 8.25 µM (≈ 13.3 µg/mL)
MIC [35]: 9.92 µM (≈ 16 µg/mL)
MIC [36]: 19.8 µM (≈ 32 µg/mL)
MIC (Staphylococcus xylosus): 0.31 µM (≈ 0.5 µg/mL)
MIC [37]: 15.5 µM (≈ 25 µg/mL)
MIC [38]: ≥ 79.4 µM
MIC (Enterococcus faecium): ≥ 79.4 µM
MIC [39]: 3.1 µM (≈ 5 µg/mL)
MIC (Salmonella enterica): 19.8 µM (≈ 32 µg/mL)
Structure (SMILES): CC[C@H](C)[C@H](NC(=O)[C@H](CO)NC(=O)[C@H](CCCCN)NC(=O)[C@H](CC(C)C)NC(=O)[C@H](CCCCN)NC(=O)[C@@H](N)CC(C)C)C(=O)N[C@H](C(=O)N[C@@H](CO)C(=O)N[C@@H](Cc1c[nH]c2ccccc12)C(=O)N[C@@H](C)C(=O)N[C@@H](CCCCN)C(=O)N[C@@H](CCCCN)C(=O)N[C@H](C(=O)N[C@@H](CC(C)C)C(N)=O)C(C)C)C(C)C [LKLKSIVSWAKKVL]
MIC [32]: 7.01 µM (≈ 11.3 µg/mL)
